Test results reported in the supplement of paper PMC5579334.
± gives the standard deviation of the averaged measurements.

Tests used:
[1] = test system: HSC1 (primary human Schwann cells); experiment: drug sensitivity score (DSS, CellTox-Green cytotoxicity, 72 h) (DSS (dimensionless)); higher = more cytotoxic; extreme values may be limits of the assay
Method in brief: (§1)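 MPNST cell lines and primary human Schwann cells were grown for 72 h at 37 °C in 384-well plates containing five 10-fold compound dilutions. CellTox-Green, added before seeding at a final 1:1000 dilution, gave fluorescence from DNA released by disrupted cells, and signals were scaled to vehicle and positive-control wells. Curves were fitted with a four-parameter logistic model. Drug sensitivity score and relative IC50 come from these fits, with IC50 censored at the top concentration.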

STS26T [2] = experiment: as above
Method in brief: as §1

S1507-2 [3] = experiment: as above
Method in brief: as §1

HS-PSS [4] = experiment: as above
Method in brief: as §1

[5] = test system: HSC2 (primary human Schwann cells); experiment: as above
Method in brief: as §1

ST8814 [6] = experiment: as above
Method in brief: as §1

[7] = test system: HSC1 (primary human Schwann cells); experiment: drug sensitivity score (DSS, CellTiter-Glo viability, 72 h) (DSS (dimensionless)); higher = more sensitive; extreme values may be limits of the assay
Method in brief: (§2)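 Viability of MPNST cell lines and primary human Schwann cells was read as CellTiter-Glo ATP luminescence after 72 h at 37 °C, 5% CO2, in 384-well plates seeded with 750–1000 cells per well. Each compound had been preprinted at five concentrations in 10-fold steps. Signals were scaled between vehicle and positive-control wells, duplicates averaged where present, and fitted with four-parameter logistic curves. Drug sensitivity score and relative IC50 (censored at the top concentration) come from those fits, and percent inhibition is taken at the top concentration.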

STS26T [8] = experiment: as above
Method in brief: as §2

S1507-2 [9] = experiment: as above
Method in brief: as §2

S462 [10] = experiment: as above
Method in brief: as §2

HS-PSS [11] = experiment: as above
Method in brief: as §2

[12] = test system: HSC2 (primary human Schwann cells); experiment: as above
Method in brief: as §2

HS-Sch-2 [13] = experiment: as above
Method in brief: as §2

ST8814 [14] = experiment: as above
Method in brief: as §2

YST-1 [15] = experiment: as above
Method in brief: as §2

[16] = test system: HSC1 (primary human Schwann cells); experiment: % inhibition of CellTiter-Glo viability at highest tested concentration (72 h), relative to DMSO and benzethonium chloride controls; higher = more inhibition
Method in brief: as §2

STS26T [17] = experiment: as above
Method in brief: as §2

S1507-2 [18] = experiment: as above
Method in brief: as §2

S462 [19] = experiment: as above
Method in brief: as §2

HS-PSS [20] = experiment: as above
Method in brief: as §2

[21] = test system: HSC2 (primary human Schwann cells); experiment: as above
Method in brief: as §2

HS-Sch-2 [22] = experiment: as above
Method in brief: as §2

ST8814 [23] = experiment: as above
Method in brief: as §2

YST-1 [24] = experiment: as above
Method in brief: as §2

Compound | drug sensitivity score [1] | drug sensitivity score (STS26T [2]) | drug sensitivity score (S1507-2 [3]) | drug sensitivity score (HS-PSS [4]) | drug sensitivity score [5] | drug sensitivity score (ST8814 [6]) | drug sensitivity score [7] | drug sensitivity score (STS26T [8]) | drug sensitivity score (S1507-2 [9]) | drug sensitivity score (S462 [10]) | drug sensitivity score (HS-PSS [11]) | drug sensitivity score [12] | drug sensitivity score (HS-Sch-2 [13]) | drug sensitivity score (ST8814 [14]) | drug sensitivity score (YST-1 [15]) | % inhibition [16] | % inhibition (STS26T [17]) | % inhibition (S1507-2 [18]) | % inhibition (S462 [19]) | % inhibition (HS-PSS [20]) | % inhibition [21] | % inhibition (HS-Sch-2 [22]) | % inhibition (ST8814 [23]) | % inhibition (YST-1 [24])
C=CC(=O)N1CCC[C@@H](n2nc(-c3ccc(Oc4ccccc4)cc3)c3c(N)ncnc32)C1 [Ibrutinib] (max concentration tested 1000 nM) | 0 | 0 | 0 | 0 | 0 | 0 | 0 | 0 | 0 | 0 | 1.17 | 0 | 0 | 0 | 0 | -4.13% | 2.46% | -8.72 ± 4.8% | -0.0582 ± 2.1% | 7.7% | -1.15% | 0.01% | 2.81% | -1.93%
COc1cc2c(Oc3ccc4[nH]c(C)cc4c3F)ncnc2cc1OCCCN1CCCC1 [Cediranib] (max concentration tested 1000 nM) | 0 | 0 | 0.112 ± 0.16 | 0 | 0.638 | 0.0254 | 0.0876 | 0 | 0.908 ± 0.43 | 0 | 1.71 | 0 | 0 | 0 | 0 | 12.1% | 4.34% | 19.9 ± 0.91% | -3.01 ± 12% | 20.1% | -10.7% | 1.32% | 8.47% | -10.3%
Cc1ccc(F)c(NC(=O)Nc2ccc(-c3cccc4[nH]nc(N)c34)cc2)c1 [Linifanib] (max concentration tested 1000 nM) | 0 | 0 | 0 | 0 | 0 | 0 | 0 | 0 | 0.308 ± 0.44 | 0.159 ± 0.18 | 0 | 0.0016 | 0 | 0 | 0 | -2.2% | 5.78% | 10 ± 8.1% | 14.7 ± 3.3% | 9.61% | 11.5% | 1.61% | 10.9% | 6.46%
Nc1ncnc2c1c(COc1cccc(Cl)c1)nn2C1CCOCC1 (max concentration tested 10000 nM) | 0 | 0 | 0.494 ± 0.64 | 0 | 0 | 0 | 0.203 | 0.587 | 0.0549 ± 0.078 | 0 | 0 | 0 | 0.64 | 0 | 0 | 11.5% | 18.3% | 9.42 ± 7.2% | -3.41 ± 5.9% | 7.3% | -5.42% | 12.5% | 5.84% | 9.51%
O=C(CCCCCCC(=O)Nc1ccc([C@H]2O[C@@H](CSc3nc(-c4ccccc4)c(-c4ccccc4)o3)C[C@@H](c3ccc(CO)cc3)O2)cc1)NO [Tubacin] (max concentration tested 10000 nM) | 0 | 3.25 | 0.0428 ± 0.06 | 0.31 | 0 | 2.33 | 3.73 | 3.13 | 3.73 ± 1 | 3.54 ± 1.2 | 4.53 | 3.24 | 3.9 | 3.74 | 4.41 | 70% | 60.2% | 67.9 ± 7.1% | 64.9 ± 20% | 48% | 56.6% | 63.7% | 64.2% | 56.1%
CN1CCC(COc2cnc(-c3cccc(Cn4nc(-c5cccc(C#N)c5)ccc4=O)c3)nc2)CC1 (max concentration tested 1000 nM) | 0 | 0.0133 | 0.27 ± 0.38 | 0 | 0 | 0 | 0 | 0.286 | 7.535 ± 0.062 | 2.88 ± 4.1 | 0 | 0 | 0 | 0 | 0 | 6.94% | 13.9% | 28.3 ± 1.1% | 12.1 ± 1.4% | 2.35% | 8.76% | 0.48% | 9.67% | 2.87%
CC[C@]1(O)C[C@H]2CN(CCc3c([nH]c4ccccc34)[C@@](C(=O)OC)(c3cc4c(cc3OC)N(C=O)[C@H]3[C@@](O)(C(=O)OC)[C@H](OC(C)=O)[C@]5(CC)C=CCN6CC[C@]43[C@@H]65)C2)C1 [Vincristine] (max concentration tested 1000 nM) | 8.67 | 36 | 13 ± 3 | 0.55 | 12.1 | 24.3 | 17.9 | 32.4 | 21.1 ± 0.68 | 28.88 ± 0.23 | 17 | 20.9 | 30.5 | 23.6 | 26.7 | 75.5% | 94.5% | 79.8 ± 1.9% | 95.45 ± 0.25% | 67.8% | 90.7% | 94% | 90.3% | 81.9%
